From publication PMC4265155, “A highly charged region in the middle domain of plant endoplasmic reticulum (ER)-localized heat-shock protein 90 is required for resistance to tunicamycin or high calcium-induced ER stresses” (Journal of Experimental Botany, 2014)

Target: T1, CfGRP94 (canine GRP94 73–754Δ41) (Canis lupus, UniProt P41148, DEL287-327, form not given)
T1 construct: gene HSP90B1
Conditions: geldanamycin-sensitive activity; 25 mM HEPES pH 7.5, 5 mM MgCl2, 400 mM KCl, 0.03% Tween 20, 10% glycerol
Source text: NADH-coupled ATPase assay (pyruvate kinase / lactate dehydrogenase) on CfGRP94 (canine GRP94 73–754Δ41)

T1 sequence (P41148 73-286, stated change not applied): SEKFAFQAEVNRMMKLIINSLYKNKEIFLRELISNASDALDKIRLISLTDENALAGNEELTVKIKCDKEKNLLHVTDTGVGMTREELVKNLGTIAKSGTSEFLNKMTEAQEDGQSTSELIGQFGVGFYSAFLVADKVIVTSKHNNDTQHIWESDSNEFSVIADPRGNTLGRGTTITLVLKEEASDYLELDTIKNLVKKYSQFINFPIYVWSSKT
T1 sequence (P41148 328-754, stated change not applied): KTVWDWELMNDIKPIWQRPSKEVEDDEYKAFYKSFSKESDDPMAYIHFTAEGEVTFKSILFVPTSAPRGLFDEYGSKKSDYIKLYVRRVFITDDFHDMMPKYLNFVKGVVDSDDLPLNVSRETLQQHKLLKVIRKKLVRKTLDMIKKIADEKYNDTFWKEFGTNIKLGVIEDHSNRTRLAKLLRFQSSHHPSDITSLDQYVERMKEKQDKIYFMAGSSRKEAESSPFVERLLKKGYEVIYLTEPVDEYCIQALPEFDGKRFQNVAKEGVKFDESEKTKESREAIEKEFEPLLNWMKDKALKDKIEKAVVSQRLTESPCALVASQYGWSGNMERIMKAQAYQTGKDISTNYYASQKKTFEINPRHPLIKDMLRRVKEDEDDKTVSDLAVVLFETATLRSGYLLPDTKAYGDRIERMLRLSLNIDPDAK

Structure (SMILES): Nc1ncnc2c1ncn2[C@@H]1O[C@H](COP(=O)(O)OP(=O)(O)OP(=O)(O)O)[C@@H](O)[C@H]1O [ATP]
- Km: 65 ± 13 µM
